From patent publication US20200268864A1, “CANCER VACCINE COMPOSITIONS AND METHODS FOR USING SAME TO TREAT CANCER” (Dana-Farber Cancer Institute, Inc., priority 2017, published 2020) come the findings set out here.

For experiment [1], the system named is PPM tumor bearing mice. Description: Flow cytometry of tumor-infiltrating immune cells in PPM tumors. Particulars: mouse, in vivo. Here is the method: Tumors were first mechanically disrupted by chopping, then chemically digested in collagenase buffer (8 mL DMEM, 0.1 mL 1M HEPES, 0.5 mL FBS, 0.2 mL Pen/Strep, 1 m, 10× collagenase/hyaluronidase (Stemcell Technologies), 0.2 mL of 1 mg/mL DNase I (Stemcell Technologies) at 37° C. for 45 min. Single-cell suspensions of spleen and lymph nodes were obtained by mashed through a 70 um strainer using the plunger of a 3 mL or 5 mL syringe. Single cells suspensions were treated with red blood lysis buffer (4 mL NH4Cl+1 mL PBS with 2% calf serum) and washed with FACS buffer. Single cells suspensions were incubated with LIVE/DEAD Fixable Aqua Dead Cell Stain (Life Technologies, Cat # L34965) for 30 min and then blocked with anti-CD16/32 (BioLegend, clone 93) for 20 min on ice. Samples were then incubated with appropriate antibodies for 30 min. on ice. The Foxp3 staining buffer set (eBioscience, Cat #00-5523-00) was applied for intracellular markers staining. For the intracellular cytokine analysis, cells were stimulated with Leukocyte Activation Cocktail (BD Biosciences, Cat #550583) at 37° C. for 5 hours prior to FACS staining. […] Flow cytometry was performed on an LSR II (BD Biosciences) or LSRFortessa™ HTS (BD Biosciences) at the DFCI flow cytometry core facility, and all the data were analyzed using FlowJo software.

Experiment [2] relates to PBM tumor-bearing mice. In words: Flow cytometry of tumor-infiltrating immune cells in PBM tumors. Particulars: mouse, in vivo. How it is done: Tumors were first mechanically disrupted by chopping, then chemically digested in collagenase buffer (8 mL DMEM, 0.1 mL 1M HEPES, 0.5 mL FBS, 0.2 mL Pen/Strep, 1 m, 10× collagenase/hyaluronidase (Stemcell Technologies), 0.2 mL of 1 mg/mL DNase I (Stemcell Technologies) at 37° C. for 45 min. Single-cell suspensions of spleen and lymph nodes were obtained by mashed through a 70 um strainer using the plunger of a 3 mL or 5 mL syringe. Single cells suspensions were treated with red blood lysis buffer (4 mL NH4Cl+1 mL PBS with 2% calf serum) and washed with FACS buffer. Single cells suspensions were incubated with LIVE/DEAD Fixable Aqua Dead Cell Stain (Life Technologies, Cat # L34965) for 30 min and then blocked with anti-CD16/32 (BioLegend, clone 93) for 20 min on ice. Samples were then incubated with appropriate antibodies for 30 min. on ice. The Foxp3 staining buffer set (eBioscience, Cat #00-5523-00) was applied for intracellular markers staining. For the intracellular cytokine analysis, cells were stimulated with Leukocyte Activation Cocktail (BD Biosciences, Cat #550583) at 37° C. for 5 hours prior to FACS staining. The following antibodies were used in the experiments and were purchased from BioLegend unless otherwise indicated: CD45 (clone 30-F11), TCRβ (clone H57-597), CD4 (clone RM4-5), CD8 (clone 53-6.7), CD44 (clone IM7), CD62L (MEL-14), CD25 (PC61), IFNγ (clone XMG1.2), TNFα(clone MP6-XT22), PD-1 (clone 29F.1A12), Tim-3 (clone RMT3-23), LAG-3 (clone C9B7W), CD11b (clone M1/70), CD11c (clone […]), F4/80 (clone BM8), Gr-1 (clone RB6-BC5), Ly-6C (clone HK1.4), Ly-6G (clone 1A8), MHCII (clone M5/114.15.2), CD80 (clone 16-10A1), CD86 (clone GL-1), MHC1 (clone KH114). FoxP3 (clone FJK-16 s; eBioscience), Phospho-IRF-3 (Ser396) (clone D6O1M, Cell signaling technology), Phospho-TBK1/NAK (Ser172) (clone D52C2, Cell signaling technology), and LIVE/DEAD® Fixable Aqua Dead Cell Stain Kit (Life Technologies Cat L34965). Flow cytometry was performed on an LSR II (BD Biosciences) or LSRFortessa™ HTS (BD Biosciences) at the DFCI flow cytometry core facility, and all the data were analyzed using FlowJo software.
Background: In flow cytometry, cells or beads pass a laser one at a time.

Experiment [3] deals with STING pathway in BMDCs co-cultured with ID8 cells. In words: Co-culture of BMDCs with drug-treated WT or Brca1-null ID8 cells. The class given is cell-based, mouse. Particulars: co-cultured with drug-treated Brca1-null ID8 cells. How it is done: Brca-1 deficient ID8 cells were generated using a CRISPR double nickase plasmid. ID8 cells cultured in a 6-well plate were transfected with 2 μg/well of BRCA1 double nickase plasmid (sc419362-NIC, Santa Cruz Biotechnology) or control double nickase plasmid (SC-437281, Santa Cruz Biotechnology) using lipofectamine 3000 (Invitrogen). 48 hrs post-transfection, cells were passaged onto a 10 cm plate. After 24 h, puromycin (3 μg/mL) was added to the culture for selection. Puromycin resistant cells were selected and expanded. Due to a lack of a reliable mouse BRCA1 antibody for Western blot, cells were analyzed by DNA sequencing to confirm the disruption of functional Brca1 allele. To generate ID8 tumors, cultured ID8 cells were harvested and resuspended in serum free DMEM. Cells were then mixed with Matrigel (Corning). A total volume of 0.1 ml containing 5×10^6 ID8 cells and 40% Matrigel were injected subcutaneously into the flank of C57BL/6J mice.
Bone marrow cells were isolated from FVB/NJ mice and cultured in RPMI-1640 containing 10% FBS and 20 ng/ml GM-CSF. BMDCs (bone marrow derived dendritic cells) were harvested for in vitro co-culture assay on day 7 to day 10. About 3×10^5 PBM or PPM tumor cells were cultured in a 6-well plate for 24 hr. and then treated with DMSO or olaparib. […]

The structures appear in SMILES notation. “Also recorded” adds a separate entry of the source.

Take `O=C(c1cc(Cc2n[nH]c(=O)c3ccccc23)ccc1F)N1CCN(C(=O)C2CC2)CC1` [olaparib, Olaparib]: the “intratumoral immune responses in PPM tumor bearing mice” value in experiment [1] is on record as “not found”. Besides, in experiment [2], the “CD80, CD86 and MHC class II expression on tumor associated DCs” value was “increased levels”; the “CD103+ DCs at the tumor site” value is given as “increased”; the “IFNγ and TNFα production by intratumoral CD4+ and CD8+ T cells” value is recorded as “significantly increased the production”; the “PD-1/TIM-3 and PD-1/Lag3 co-expression (exhausted state) on intratumoral CD8+ T cells” value was “reduced expression; also recorded: reduced the exhausted state”. Also, in experiment [2], the “effector CD8+ T cells in malignant ascites of the peritoneal cavity” value is “Increase”, the “frequency of intratumoral FoxP3+ Treg” value is given as “not changed”, the “immune cell (CD45+) infiltration into tumor” value is recorded as “Increased” and the “intratumoral MDSC cells (CD11b+Gr1+; gMDSC)” value is reported as “reduced”. Besides, in experiment [2], the “number of intratumoral CD4+ and CD8+ T cells” value was “significantly increased; also recorded: increased the number”. Moreover, in experiment [2] (listed as Olaparib), the “intratumoral MDSC cells (CD11b+Gr1+; gMDSC)” value is “decrease”. Moreover, the “p-TBK1+p-IRF3+ and IFN-β (STING pathway activation) in wild-type BMDCs” value in experiment [3] is given as “Increased; also recorded: activation of STING pathway occurred”.
